Results reported in the NIST ThermoML archive (doi:10.1016/j.jct.2016.09.038).
Numbers after ± are expanded uncertainties.

Legend:
[1] = Crystal; DTA
[2] = Molar enthalpy of transition or fusion; details: Crystal; DSC

For `CC(C)(C)[C@H](O)[C@H](Cc1ccc(Cl)cc1)n1cncn1` [2S,3S-Paclobutrazol], the Normal melting temperature [1] was 160.66 ± 1.1 °C and the “Molar enthalpy of transition or fusion” value [2] was 9.05 ± 0.263 kcal/mol.
